# From US20250280843A1, “METHOD FOR INHIBITING POTATOES FROM GREENING AND USE THEREOF” (priority 2024, published 2025)
# Where two headings read alike, the source gives them in different places.
# How the values were obtained:
# [1] = test system: potatoes; type: in vivo, potato; settings: under illumination; specific experimental data omitted
# Excerpt: Ethylene, as a plant hormone that promotes maturity and aging, can be produced by some plants themselves and exists in a certain amount in the storage environment and even in the air. Ethylene binds with a related receptor inside a cell to activate a series of physiological and biochemical reactions related to maturity, thereby accelerating aging and death. 1-MCP can also bind well with an ethylene receptor, but such binding will not cause a biochemical reaction of maturity. Therefore, before the production of endogenous ethylene in a plant or the action of exogenous ethylene, if 1-MCP is applied, it will bind with the ethylene receptor first, thereby preventing the binding of ethylene with the receptor thereof, which greatly prolongs the ripening and aging process of fruits and vegetables and extends the length for preservation. There are many reagents that bind with the ethylene receptor to control the production of ethylene, e.g. aminooxyacetic acid (AOA), salicylic acid (SA), 2,5-norbornadiene (2,5-NBD), silver thiosulfate (STS), and aminooxyvinylglycine (AVG). These reagents are all ethylene inhibitors.
# [2] = test system: potato tubers; experiment: Determination of greening index a* of potato tuber skin after fumigation; type: in vivo, potato ("V7"); settings: for greening index a*: fumigation 10 mg 1-MCP + NaOH 16 h; for Value of greening index a*: with NaOH
# Excerpt: The method for inhibiting potatoes from greening was: treating potato tubers with 1-MCP, and specifically, fumigating potato tubers with 1-MCP and NaOH.
# (§1) “V7” potatoes were used as experimental materials. They were collected from Dongyu Vegetable Market in Ningbo City, Zhejiang Province. They were freshly picked and transported to the laboratory at room temperature. They were cleaned, and tubers of uniform sizes and free of diseases and insect pests and free of mechanical damages were selected as experimental samples. The samples were divided into two groups, immersed in distilled water for 10 min and then naturally air-dried after the immersion treatment was ended.
# (§2) One group served as a control group (CK) without any subsequent treatment, and contained 50 potatoes. For another group, a carton was provided, in which 50 potatoes were placed. The carton was placed in a controlled atmosphere storage box with a volume of 1,000 L at a temperature controlled at 25° C. and the humidity maintained at 60%. The gas composition in the controlled atmosphere storage box was maintained the same as that of the atmosphere. A space was reserved in the controlled atmosphere storage box. 10 mg of 1-MCP dry powder was weighed into a glass weighing bottle. The weighing bottle containing 1-mcp was placed in the controlled atmosphere storage box, and added with 2 ml of a 1M NaOH solution to release 1-mcp gas from the weighing bottle. The weight of the gas was 10 mg. The potatoes were placed in the gas environment, fumigated for 16 h, taken out and then air-dried for 1 h. The meaning of “fumigation” here was to put the potatoes in a gas environment of 10 mg 1-mcp in a 1,000 L controlled atmosphere storage box, which was equivalent to a concentration of 0.01 milligrams of the 1-mcp gas per liter of gas.
# Subsequently, the potatoes of the control group (2 groups) and the treatment group (2 groups) were bagged (two groups). The two groups were stored in a constant temperature and humidity chamber at 25±1° C. and relative humidity of 60% for 12 d. One of the groups was an illumination group with an illumination intensity of 10,000 LUX, and the other one was a group with protection from light having an illumination intensity of 0 LUX (in the dark). The tuber skin of the potatoes was taken every 3 d and photographed. The skin was then frozen in liquid nitrogen, and stored at −80° C. for subsequent analysis.
# Potato tubers treated for corresponding days were picked out. 6 potatoes were randomly selected from each group. the skin of potato tuber was peeled off, and immediately measured for the color difference with a colorimeter (Shenzhen ThreeNH Technology Co., Ltd., model: NR60CP+), and the a* value was determined and recorded with a […] to indicate the color change of the potato skin. a* was an important parameter for measuring color and lustre. The positive or negative value indicated reddish (positive indicated reddish) or greenish (negative indicated greenish), and the magnitude of the absolute value indicated the degree of reddish or greenish. The colorimeter was calibrated with a standard white plate before determination.
# Three groups of experiments were set up. One group was as described in Example 1, in which potato tubers were fumigated with 1-MCP and NaOH, serving as the control group in this experiment. The difference between an experimental group 1 and the control group was that no NaOH solution was used, but an equal volume of water was used. The difference between an experimental group 2 and the control group was that no NaOH solution was used, but an equal volume of anhydrous ethanol was used.
# This example employed the method provided in Example 1, and employed 1-MCP and NaOH to fumigate potato tubers, where the dosages of 1-MCP were 1, 5, 10, 15, and 20 mg, respectively. The greening index a* value was determined by the same method as in Example 1.
# [3] = test system: potato tubers; experiment: Determination of chlorophyll content; type: in vivo, potato ("V7"); settings: illumination group, during storage 12 d; vs control
# Experimental: as §1
# (§3) One group served as a control group (CK) without any subsequent treatment, and contained 50 potatoes. For another group, a carton was provided, in which 50 potatoes were placed. The carton was placed in a controlled atmosphere storage box with a volume of 1,000 L at a temperature controlled at 25° C. and the humidity maintained at 60%. The gas composition in the controlled atmosphere storage box was maintained the same as that of the atmosphere. […]
# 0.2 g of a potato frozen sample (the sample of the illumination group) was taken, grounded into a homogenate with 1.5 mL of 95% (v/v) ethanol in an ice bath, and then centrifuged at a rotational speed of 10.000 r/min for 10 min. The precipitate was discarded, the supernatant was taken, and 95% ethanol was used as a blank group, to determine the absorbance values at 649 nm and 665 nm, respectively. […]
# [4] = test system: potato tubers; experiment: Determination of ethylene release amount; type: in vivo, potato ("V7"); settings: illumination group, entire storage period 12 d; vs control
# Experimental: as §1
# as §3, with “atmosphere. A space was reserved in the controlled atmosphere storage box. 10 mg of 1-MCP dry powder was weighed into a glass weighing bottle.” for “atmosphere.”
# 4 potato tubers were randomly selected and placed in a sealed container (illumination group). They were placed at respective storage temperatures for 3 h, and then 5 mL of gas was extracted and determined for ethylene content using a Shimadzu type 2014C gas chromatograph (Shimadzu, Japan). […]
# [5] = test system: potato tubers; experiment: Determination of solanine content (LC-MS); type: in vivo, potato ("V7"); settings: vs control
# Experimental: as §1
# One group served as a control group (CK) without any subsequent treatment, and contained 50 potatoes. For another group, a carton was provided, in which 50 potatoes were placed. The carton was placed in a controlled atmosphere storage box with a volume of 1,000 L at a temperature controlled at 25° C. and the humidity maintained at 60%. The gas composition in the controlled atmosphere storage box was maintained the same as that of the atmosphere. A space was reserved in the controlled atmosphere storage box. 10 mg of 1-MCP dry powder was weighed into a glass weighing bottle. The weighing bottle containing 1-mcp was placed in the controlled atmosphere storage box, and added with 2 ml of a 1M NaOH solution to release 1-mcp gas from the weighing bottle. The weight of the gas was 10 mg. The potatoes were placed in the gas environment, fumigated for 16 h, taken out and then air-dried for 1 h. The meaning of “fumigation” here was to put the potatoes in a gas environment of 10 mg 1-mcp in a 1,000 L controlled atmosphere storage box, which was equivalent to a concentration of 0.01 milligrams of the 1-mcp gas per liter of gas. […]
# Solanine was mainly composed of solanine and chaconine, with solanidine as aglycone. Therefore, α-solanine and α-chaconine (Sigma-Aldrich, USA) were used as chemical standards for quantification of SGA content. • 1) Liquid chromatography conditions: AgilentEclipsePlusC18 chromatographic column (100 mm×2.1 mm, 1.8 μm); the mobile phase A was 1 mmol/L of an acidified ammonium formate solution, and the mobile phase B was acetonitrile. […]
# [6] = test system: potato tubers; experiment: Long-term preservation effect under natural illumination; type: in vivo, potato ("V7"); settings: for color difference value: natural day/night, 25±1° C.
# Experimental: as §2
# In order to simulate natural illumination, the aforementioned control and treated potatoes were placed in an incubator (fully transparent), and placed under conditions of 25±1° C. and relative humidity of 60% in an outdoor environment. Based on the environment with natural alternation of day and night, the color difference was calculated through instruments. The change in color difference values was measured every 5 days during storage for 2, 3, and 6 months. […] In the 2nd month of storage, the color difference value of the control group was −14, while the test value of the treatment group was −2.2.
# [7] = test system: solanine synthesis-related genes; experiment: Gene expression by real-time PCR: solanine synthesis genes; set-up: species or system potato; settings: during the greening period; vs control
# Experimental: Genes related to inhibition of solanine synthesis included StHMGR, StPSS1, StSQE1, StCAS1, StSSR2, StSSR1, StPGA2, StPGA1, StDOX, StGAME6, StPGA3, StGAME12, StSGT1, StSGT2, and StSGT3.
# (§4) Total RNA was extracted from frozen potato skins and transformed into cDNA. The expression levels of the aforementioned genes were determined by a Bio-Rad CFX 96 Real-Time PCR System (BIO-RAD, Hercules, CA, USA) and a SYBR Green I Master Mix (Vazyme, Nanjing, Jiangsu, China). Thermocycling conditions included an initial denaturation step at 95° C. for 30 s, followed by 39 cycles of 95° C. for 15 s, then 55° C. for 30 s, and 72° C. for 20 s. Three biological replicates were used, and each replicate was measured for three times. StEF-1a was used as a reference gene for potatoes. Gene expression was calculated by using a 2-ΔCt method.
# [8] = test system: chlorophyll synthesis-related genes; experiment: Gene expression by real-time PCR: chlorophyll synthesis genes; set-up: species or system potato; settings: during the greening period; vs control
# Experimental: Chlorophyll synthesis-related genes included StHEMA, StGSA, StPBGD, StCPO, StPPO, StCHLD, StCHLI, StCHLH, STCHLHM, StCRD1, StPOR1, StPOR2, StCHLG, and StCHLP.
# as §4
# [9] = test system: chlorophyll degradation-related genes; experiment: Gene expression by real-time PCR: chlorophyll degradation genes; set-up: species or system potato; settings: during the greening period; vs control
# Experimental: Chlorophyll degradation-related genes included StSGR, StNYC1, StTIC, and StPAO.
# as §4
# [10] = test system: StPOD42; experiment: Gene expression by real-time PCR: germination-promoting gene; set-up: species or system potato; settings: during storage; vs control
# Experimental: Germination-promoting genes included StPOD42 (XM_006363284.2).
# as §4
# [11] = cited from earlier work
compound,measurement,setting,value
silver thiosulfate,effect on greening of potatoes,[1],will not inhibit the potatoes from greening
NOCC(=O)O [aminooxyacetic acid],effect on greening of potatoes,[1],will not inhibit the potatoes from greening
O=C(O)c1ccccc1O [salicylic acid],effect on greening of potatoes,[1],accelerate the greening progress
"C1=CC2C=CC1C2 [2,5-norbornadiene]",effect on greening of potatoes,[1],accelerate the greening progress
1-methylcyclopropene [1-MCP],greening index a*: fumigation with NaOH compared with equal volume of water or ethanol,"[2]; Example 3, 1-MCP released with NaOH solution vs water vs anhydrous ethanol",significantly improve the effect of 1-MCP in inhibiting greening
same,greening index a*,"[2]; dark (0 LUX), 6th day of storage",basically no greening
same,Value of greening index a*,"[2]; dosage of 1-MCP 1 mg, storage 12 d",−3.2
same,Value of greening index a*,"[2]; dosage of 1-MCP 5 mg, storage 12 d",−2.1
same,Value of greening index a*,"[2]; dosage of 1-MCP 10 mg, storage 12 d",−1.2
same,Value of greening index a*,"[2]; dosage of 1-MCP 15 mg, storage 12 d",−1.8
same,Value of greening index a*,"[2]; dosage of 1-MCP 20 mg, storage 12 d",−2.6
same,greening index a*,"[2]; illumination 10,000 LUX, 25±1° C., storage 12 d, vs control",still remained at a relatively high level
same,chlorophyll content,[3],increased slowly compared with the control group
same,ethylene release amount,[4],always lower than that of the control group
same,solanine content,"[5]; during storage, dark or light",increased very slowly
same,α-chaconine content,[5]; starting from the 3rd day,significantly different from those in the control group
same,α-solanine content,[5]; starting from the 3rd day,significantly different from those in the control group
same,appearance (green spots),[6]; 2nd month of storage,no obvious changes
same,color difference value,[6]; 2nd month of storage,−2.2
same,germination in appearance,[6]; 3 months of storage,a small amount of germination
same,occurrence of greening,[6]; 3 months of storage,no occurrence of greening
same,color difference value,[6]; 3 months of storage,−3.4
same,germination,[6]; 6 months of storage,a small amount of germination
same,occurrence of greening,[6]; 6 months of storage,no occurrence of greening
same,solanine content,[6]; 6 months of storage,maintained within a safe range
same,color difference value,[6]; 6 months of storage,−6.7
same,expression amount of solanine synthesis-related genes,[7],significantly lower than those in the control group
same,expression amount of chlorophyll synthesis-related genes,[8],significantly lower than those in the control group
same,expression amount of chlorophyll degradation genes,[9],significantly higher than those in the control group
same,expression of the germination-promoting gene StPOD42,[10],did not affect the expression
same,effect on greening of potatoes,[1],significantly inhibit potatoes from greening
same,solubility in solvent,[11]; 3-dichlorotoluene,2.0 g/L
same,water solubility,[11]; 20° C.,137 mg/L
same,solubility in solvent,[11]; acetone,2.4 g/L
same,solubility in solvent,[11]; ethyl acetate,12.5 g/L
same,solubility in solvent,[11]; heptane,2.5 g/L
same,solubility in solvent,[11]; methanol,11.25 g/L
same,solubility in solvent,[11]; xylene,2.3 g/L
